# Experimental data reported in ChEMBL document CHEMBL3826948, “Alkyl substituted aminal derivatives of HCV NS5A inhibitor MK-8742” (Bioorg Med Chem Lett, 2016).
# Experiments:
# [1] = AUC in Sprague-Dawley rat at 10 mg/kg, po; assay type: ADME, organism-based; settings: in vivo
# [2] = Cmax in Sprague-Dawley rat at 10 mg/kg, po; assay type: ADME, organism-based; parameters: dose 10 mg/kg, route oral; settings: in vivo
# [3] = Clearance in Sprague-Dawley rat at 10 mg/kg po or 2 mg/kg iv; assay type: ADME, organism-based; settings: in vivo
# [4] = Inhibition of NS5A in HCV genotype 1a assessed as replicon RNA levels by real time PCR based cell based assay; parameters: species or system Hepatitis C virus subtype 1a; settings: Hepatitis C virus
# [5] = Half life in Sprague-Dawley rat at 10 mg/kg po or 2 mg/kg iv; assay type: ADME, organism-based; settings: in vivo
# [6] = Inhibition of NS5A in HCV genotype 2b assessed as replicon RNA levels by real time PCR based cell based assay; parameters: species or system Hepatitis C virus subtype 2b; settings: Hepatitis C virus
# [7] = Inhibition of NS5A in HCV genotype 3a assessed as replicon RNA levels by real time PCR based cell based assay; parameters: species or system Hepatitis C virus subtype 3a; settings: Hepatitis C virus
# [8] = Inhibition of NS5A in HCV genotype 1b assessed as replicon RNA levels by real time PCR based cell based assay; parameters: species or system Hepatitis C virus subtype 1b; settings: Hepatitis C virus
# [9] = Inhibition of NS5A in HCV genotype 2a assessed as replicon RNA levels by real time PCR based cell based assay; parameters: species or system Hepatitis C virus subtype 2a; settings: Hepatitis C virus
# [10] = Inhibition of NS5A in HCV genotype 4a assessed as replicon RNA levels by real time PCR based cell based assay; parameters: species or system Hepatitis C virus subtype 4a; settings: Hepatitis C virus
# [11] = Oral bioavailability in Sprague-Dawley rat at 10 mg/kg; assay type: ADME, organism-based; settings: in vivo
# [12] = Half life in Sprague-Dawley rat at 5 mg/kg po or 2 mg/kg iv; assay type: ADME, organism-based; settings: in vivo
# [13] = Clearance in Sprague-Dawley rat at 5 mg/kg po or 2 mg/kg iv; assay type: ADME, organism-based; settings: in vivo
# [14] = Oral bioavailability in Sprague-Dawley rat at 5 mg/kg; assay type: ADME, organism-based; settings: in vivo
# [15] = Cmax in Sprague-Dawley rat at 5 mg/kg, po; assay type: ADME, organism-based; parameters: dose 5 mg/kg, route oral; settings: in vivo
# [16] = AUC in Sprague-Dawley rat at 5 mg/kg, po; assay type: ADME, organism-based; settings: in vivo
# [17] = Inhibition of NS5A in HCV genotype 1b; parameters: species or system Hepatitis C virus subtype 1b
# [18] = target: Nonstructural protein 5A (Hepatitis C virus, UniProt Q5L478, Y93H); test: Inhibition of NS5A in HCV genotype 1a Y93H mutant; parameters: species or system Hepatitis C virus subtype 1a
# [19] = Inhibition of NS5A in HCV genotype 4a; parameters: species or system Hepatitis C virus subtype 4a
# [20] = Inhibition of NS5A in HCV genotype 3a; parameters: species or system Hepatitis C virus subtype 3a
# [21] = Inhibition of NS5A in HCV genotype 2b; parameters: species or system Hepatitis C virus subtype 2b
# [22] = Inhibition of NS5A in HCV genotype 1a; parameters: species or system Hepatitis C virus subtype 1a
# [23] = Inhibition of NS5A in HCV genotype 2a; parameters: species or system Hepatitis C virus subtype 2a
# [24] = target: Nonstructural protein 5A (Hepatitis C virus, UniProt Q5L478, L31V); test: Inhibition of NS5A in HCV genotype 1a L31V mutant; parameters: species or system Hepatitis C virus subtype 1a
# Chain of Nonstructural protein 5A (Hepatitis C virus, UniProt Q5L478, Y93H) (Q5L478 entry or part of it Y93H): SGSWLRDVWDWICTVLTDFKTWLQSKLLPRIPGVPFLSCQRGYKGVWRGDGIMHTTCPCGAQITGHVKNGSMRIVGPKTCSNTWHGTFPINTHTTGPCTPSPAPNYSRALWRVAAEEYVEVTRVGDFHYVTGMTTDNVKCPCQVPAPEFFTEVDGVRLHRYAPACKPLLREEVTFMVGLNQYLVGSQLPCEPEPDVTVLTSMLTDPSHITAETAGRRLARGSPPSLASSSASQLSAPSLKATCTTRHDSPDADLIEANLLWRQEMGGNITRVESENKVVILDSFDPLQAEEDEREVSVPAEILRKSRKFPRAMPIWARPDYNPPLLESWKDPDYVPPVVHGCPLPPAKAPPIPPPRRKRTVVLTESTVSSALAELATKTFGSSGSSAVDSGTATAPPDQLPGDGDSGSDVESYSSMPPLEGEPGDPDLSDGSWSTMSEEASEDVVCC
Structure (SMILES),EC50 [4] [pM],EC50 [6] [pM],EC50 [7] [pM],EC50 [8] [pM],EC50 [9] [pM],EC50 [10] [pM],also measured
COC(=O)N[C@H](C(=O)N1CCC[C@H]1c1ncc(-c2ccc3c(c2)OC(C)n2c-3cc3cc(-c4cnc([C@@H]5CCCN5C(=O)[C@@H](NC(=O)OC)C(C)C)[nH]4)ccc32)[nH]1)C(C)C (some centres not stated),3,23000,90,3,7,30,AUC [1]: 6.2 µM·h; Cmax [2]: 990 nM; clearance [3]: 8.5 mL/min/kg; half-life [5]: 2.2 h; bioavailability [11]: 26%
CCC1Oc2cc(-c3cnc([C@@H]4CCCN4C(=O)[C@@H](NC(=O)OC)C(C)C)[nH]3)ccc2-c2cc3cc(-c4cnc([C@@H]5CCCN5C(=O)[C@@H](NC(=O)OC)C(C)C)[nH]4)ccc3n21 (some centres not stated),2,2000,300,2,1,40,half-life [12]: 3.6 h; clearance [13]: 5.2 mL/min/kg; bioavailability [14]: 43%; Cmax [15]: 1220 nM; AUC [16]: 8.4 µM·h
COC(=O)N[C@H](C(=O)N1CCC[C@H]1c1ncc(-c2ccc3c(c2)OCn2c-3cc3cc(-c4cnc([C@@H]5CCCN5C(=O)[C@@H](NC(=O)OC)C(C)C)[nH]4)ccc32)[nH]1)C(C)C,–,–,–,–,–,–,EC50 [17]: 8 pM; EC50 [18]: 100000 pM; EC50 [19]: 60 pM; EC50 [20]: 500 pM; EC50 [21]: 31000 pM; EC50 [22]: 10 pM; EC50 [23]: 7 pM; EC50 [24]: 3000 pM
COC(=O)N[C@H](C(=O)N1CCC[C@H]1c1ncc(-c2ccc3c(c2)OC(C2CC2)n2c-3cc3cc(-c4cnc([C@@H]5CCCN5C(=O)[C@@H](NC(=O)OC)C(C)C)[nH]4)ccc32)[nH]1)C(C)C (some centres not stated),3,1000,100,4,2,20,half-life [12]: 3.4 h; clearance [13]: 6.2 mL/min/kg; bioavailability [14]: 27%; Cmax [15]: 740 nM; AUC [16]: 4.4 µM·h
COC(=O)N[C@H](C(=O)N1CCC[C@H]1c1ncc(-c2ccc3c(c2)OC(C2CCC(F)(F)CC2)n2c-3cc3cc(-c4cnc([C@@H]5CCCN5C(=O)[C@@H](NC(=O)OC)C(C)C)[nH]4)ccc32)[nH]1)C(C)C (mixture of isomers),2,4000,800,0.8,7,70,–
COC(=O)N[C@H](C(=O)N1CCC[C@H]1c1ncc(-c2ccc3c(c2)OC(C2CCC2)n2c-3cc3cc(-c4cnc([C@@H]5CCCN5C(=O)[C@@H](NC(=O)OC)C(C)C)[nH]4)ccc32)[nH]1)C(C)C (mixture of isomers),8,9000,1000,5,6,60,–
COC(=O)N[C@H](C(=O)N1CCC[C@H]1c1ncc(-c2ccc3c(c2)OC(CC(C)C)n2c-3cc3cc(-c4cnc([C@@H]5CCCN5C(=O)[C@@H](NC(=O)OC)C(C)C)[nH]4)ccc32)[nH]1)C(C)C (mixture of isomers),0.8,10000,400,0.7,8,20,–
COC(=O)N[C@H](C(=O)N1CCC[C@H]1c1nc(-c2ccc3c(c2)O[C@@H](c2ccccc2)n2c-3cc3cc(-c4c[nH]c([C@@H]5CCCN5C(=O)[C@@H](NC(=O)OC)C(C)C)n4)ccc32)c[nH]1)C(C)C [ELBASVIR],–,–,–,–,–,–,EC50 [17]: 3 pM; EC50 [18]: 2000 pM; EC50 [19]: 3 pM; EC50 [20]: 20 pM; EC50 [21]: 3000 pM; EC50 [22]: 4 pM; EC50 [23]: 3 pM; EC50 [24]: 500 pM
